pIC50: −log10 of the molar value. Counter-ions that a name gives are not always drawn. Like-named read-outs stand apart in the source and are kept apart here.
Target: T1, recombinant human baculovirus-expressed GST-tagged FASN (Homo sapiens, UniProt P49327)
T1 construct: GST
Experiment: biochemical

[1] = 5 nM FASN, 150 μM NADPH, 10 μM acetyl-CoA, 25 μM malonyl-CoA, 90 minutes incubation, read-out: IC50 data for Compounds of Formula I, Activity

T1 sequence (P49327 whole entry): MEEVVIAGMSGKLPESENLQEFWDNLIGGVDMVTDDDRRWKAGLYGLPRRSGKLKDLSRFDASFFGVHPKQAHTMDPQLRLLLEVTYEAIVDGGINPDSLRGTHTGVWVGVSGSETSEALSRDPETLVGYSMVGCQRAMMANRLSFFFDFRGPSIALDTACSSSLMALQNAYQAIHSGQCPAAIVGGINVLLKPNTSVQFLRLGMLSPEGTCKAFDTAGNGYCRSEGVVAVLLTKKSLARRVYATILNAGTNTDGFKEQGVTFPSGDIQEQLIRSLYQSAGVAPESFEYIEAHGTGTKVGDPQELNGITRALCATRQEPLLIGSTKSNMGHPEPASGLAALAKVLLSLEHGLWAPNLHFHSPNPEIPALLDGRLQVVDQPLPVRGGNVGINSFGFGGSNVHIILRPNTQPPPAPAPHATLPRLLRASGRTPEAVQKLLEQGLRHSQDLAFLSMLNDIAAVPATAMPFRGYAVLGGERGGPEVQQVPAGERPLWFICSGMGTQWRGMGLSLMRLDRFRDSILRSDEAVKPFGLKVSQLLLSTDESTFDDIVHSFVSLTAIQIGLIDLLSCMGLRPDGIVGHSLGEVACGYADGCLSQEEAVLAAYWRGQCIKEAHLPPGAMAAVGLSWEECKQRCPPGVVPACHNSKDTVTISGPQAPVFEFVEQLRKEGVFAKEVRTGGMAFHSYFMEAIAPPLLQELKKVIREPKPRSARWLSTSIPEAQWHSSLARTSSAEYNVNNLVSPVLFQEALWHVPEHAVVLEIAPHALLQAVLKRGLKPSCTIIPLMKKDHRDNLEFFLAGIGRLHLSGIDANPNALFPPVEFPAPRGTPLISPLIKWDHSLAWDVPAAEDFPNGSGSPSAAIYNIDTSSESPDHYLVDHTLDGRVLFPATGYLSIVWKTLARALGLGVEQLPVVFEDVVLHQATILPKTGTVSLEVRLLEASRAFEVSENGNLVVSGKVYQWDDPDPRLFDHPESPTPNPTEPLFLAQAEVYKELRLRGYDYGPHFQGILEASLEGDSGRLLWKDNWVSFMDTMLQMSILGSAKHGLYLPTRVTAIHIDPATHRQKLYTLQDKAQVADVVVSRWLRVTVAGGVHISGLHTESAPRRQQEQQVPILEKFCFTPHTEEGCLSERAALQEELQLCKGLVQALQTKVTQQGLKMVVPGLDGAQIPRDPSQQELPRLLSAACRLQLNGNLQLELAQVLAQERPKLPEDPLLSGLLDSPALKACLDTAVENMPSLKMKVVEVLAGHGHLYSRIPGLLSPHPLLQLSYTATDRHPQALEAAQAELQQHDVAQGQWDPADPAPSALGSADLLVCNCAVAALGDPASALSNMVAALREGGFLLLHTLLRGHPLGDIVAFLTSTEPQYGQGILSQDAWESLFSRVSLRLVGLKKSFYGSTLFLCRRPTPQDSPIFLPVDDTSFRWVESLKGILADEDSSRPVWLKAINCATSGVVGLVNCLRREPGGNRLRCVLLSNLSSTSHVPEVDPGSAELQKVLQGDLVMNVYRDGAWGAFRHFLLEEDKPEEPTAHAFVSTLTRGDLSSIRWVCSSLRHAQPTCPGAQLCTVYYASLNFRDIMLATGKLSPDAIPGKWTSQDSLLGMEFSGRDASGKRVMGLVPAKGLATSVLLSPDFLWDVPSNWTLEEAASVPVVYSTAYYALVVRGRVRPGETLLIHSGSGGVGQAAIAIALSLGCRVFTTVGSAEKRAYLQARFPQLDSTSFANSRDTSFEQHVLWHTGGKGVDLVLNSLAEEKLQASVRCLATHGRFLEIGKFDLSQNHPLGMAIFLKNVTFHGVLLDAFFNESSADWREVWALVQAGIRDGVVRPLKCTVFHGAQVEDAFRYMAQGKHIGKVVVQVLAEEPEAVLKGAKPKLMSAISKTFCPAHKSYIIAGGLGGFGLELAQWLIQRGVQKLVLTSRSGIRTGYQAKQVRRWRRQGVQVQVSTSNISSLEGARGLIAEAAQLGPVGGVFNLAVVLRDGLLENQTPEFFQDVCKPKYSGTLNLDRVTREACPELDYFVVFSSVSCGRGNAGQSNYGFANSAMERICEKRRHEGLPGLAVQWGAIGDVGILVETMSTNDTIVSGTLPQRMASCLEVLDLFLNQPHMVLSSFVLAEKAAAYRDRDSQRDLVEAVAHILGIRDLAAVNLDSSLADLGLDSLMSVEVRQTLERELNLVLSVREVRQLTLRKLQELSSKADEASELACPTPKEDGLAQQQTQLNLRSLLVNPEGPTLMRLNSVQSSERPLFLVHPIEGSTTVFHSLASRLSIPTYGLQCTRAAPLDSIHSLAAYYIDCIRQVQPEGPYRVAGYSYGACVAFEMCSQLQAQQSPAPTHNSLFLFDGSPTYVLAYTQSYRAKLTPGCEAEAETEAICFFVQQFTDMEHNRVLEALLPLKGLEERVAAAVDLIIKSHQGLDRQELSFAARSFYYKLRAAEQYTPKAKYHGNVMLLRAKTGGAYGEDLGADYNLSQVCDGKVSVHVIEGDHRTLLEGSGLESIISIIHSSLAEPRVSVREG

Row | Structure (SMILES) | pIC50 [1] | pIC50
1 | CCONC(=O)N1CCC2(CCc3cc(-c4ccc5cnc(C)cc5c4)ccc3O2)CC1 [Example 207, N-Ethoxy-6-(3-methyl-6-isoquinolyl)spiro[chromane-2,4′-piperidine]-1′-carboxamide] | 7.00 to 9.00 | –
2 | CCNC(=O)N1CCC2(CCc3cc(-c4ccc5cnc(C)cc5c4)ccc3O2)CC1 [Example 208, N-Ethyl-6-(3-methyl-6-isoquinolyl)spiro[chromane-2,4′-piperidine]-1′-carboxamide] | 6.00 to 7.00 | –
3 | CONC(=O)N1CCC2(CCc3cc(-c4ccc5cnc(C)cc5c4)ccc3O2)CC1 [Example 209, N-Methoxy-6-(3-methyl-6-isoquinolyl)spiro[chromane-2,4′-piperidine]-1′-carboxamide] | 7.00 to 9.00 | –
4 | CONC(=O)N1CCC2(CCc3cc(-c4ccc5cccnc5c4OC)ccc3O2)CC1 [Example 210, N-Methoxy-6-(8-methoxy-7-quinolyl)spiro[chromane-2,4′-piperidine]-1′-carboxamide] | 7.00 to 9.00 | –
5 | CCONC(=O)N1CCC2(CCc3cc(-c4ccc5cccnc5c4OC)ccc3O2)CC1 [Example 211, N-Ethoxy-6-(8-methoxy-7-quinolyl)spiro[chromane-2,4′-piperidine]-1′-carboxamide] | 7.00 to 9.00 | –
6 | Cc1c(-c2ccc3c(c2)C(=O)CC2(CCN(C(N)=O)CC2)O3)ccc2cccnc12 [Example 212, 6-(8-methyl-7-quinolyl)-4-oxo-spiro[chromane-2,4′-piperidine]-1′-carboxamide] | 6.00 to 7.00 | –
7 | Cc1c(-c2ccc3c(c2)C(O)CC2(CCN(C(N)=O)CC2)O3)ccc2cccnc12 (stereo not drawn) [Example 213, 4-Hydroxy-6-(8-methyl-7-quinolyl)spiro[chromane-2,4′-piperidine]-1′-carboxamide] | 6.00 to 7.00 | –
8 | CCC(=O)N1CCC2(CCc3cc(-c4ccccn4)ccc3O2)CC1 [Example 215, 1-[6-(2-Pyridyl)spiro[chromane-2,4′-piperidine]-1′-yl]propan-1-one, HCl] | 5.00 to 6.00 | –
9 | O=C(C1CC1)N1CCC2(CCc3cc(-c4ccccn4)ccc3O2)CC1 [Example 216, Cyclopropyl-[6-(2-pyridyl)spiro[chromane-2,4′-piperidine]-1′-yl]methanone, HCl] | 5.00 to 6.00 | –
10 | O=C([C@H]1CCCO1)N1CCC2(CCc3cc(-c4ccccn4)ccc3O2)CC1 [Example 217, [6-(2-Pyridyl)spiro[chromane-2,4′-piperidine]-1′-yl]-[(2R)-tetrahydrofuran-2-yl]methanone, HCl] | 5.00 to 6.00 | –
11 | CCC(=O)N1CCC2(CC1)OCc1cc(-c3ccccn3)ccc1O2 [Example 218, 1-[6-(2-Pyridyl)spiro[4H-1,3-benzodioxine-2,4′-piperidine]-1′-yl]propan-1-one, HCl] | – | 5.00 to 6.00
12 | O=C(C1CC1)N1CCC2(CC1)OCc1cc(-c3ccccn3)ccc1O2 [Example 219, Cyclopropyl-[6-(2-pyridyl)spiro[4H-1,3-benzodioxine-2,4′-piperidine]-1′-yl]methanone, HCl] | – | 5.00 to 6.00
13 | O=C([C@H]1CCCO1)N1CCC2(CC1)OCc1cc(-c3ccccn3)ccc1O2 [Example 220, [6-(2-Pyridyl)spiro[4H-1,3-benzodioxine-2,4′-piperidine]-1′-yl]-[(2R)-tetrahydrofuran-2-yl]methanone, HCl] | – | 6.00 to 7.00
14 | CCC(=O)N1CCC2(CCc3cc(-c4cccnc4)ccc3O2)CC1 [Example 221, 1-[6-(3-Pyridyl)spiro[chromane-2,4′-piperidine]-1′-yl]propan-1-one, HCl] | 5.00 to 6.00 | –
15 | O=C(C1CC1)N1CCC2(CCc3cc(-c4cccnc4)ccc3O2)CC1 [Example 222, Cyclopropyl-[6-(3-pyridyl)spiro[chromane-2,4′-piperidine]-1′-yl]methanone, HCl] | 5.00 to 6.00 | –
16 | O=C([C@H]1CCCO1)N1CCC2(CCc3cc(-c4cccnc4)ccc3O2)CC1 [Example 223, [6-(3-Pyridyl)spiro[chromane-2,4′-piperidine]-1′-yl]-[(2R)-tetrahydrofuran-2-yl]methanone, HCl] | 6.00 to 7.00 | –
17 | CCC(=O)N1CCC2(CC1)OCc1cc(-c3cccnc3)ccc1O2 [Example 224, 1-[6-(3-Pyridyl)spiro[4H-1,3-benzodioxine-2,4′-piperidine]-1′-yl]propan-1-one, HCl] | – | 5.00 to 6.00
18 | O=C(C1CC1)N1CCC2(CC1)OCc1cc(-c3cccnc3)ccc1O2 [Example 225, Cyclopropyl-[6-(3-pyridyl)spiro[4H-1,3-benzodioxine-2,4′-piperidine]-1′-yl]methanone, HCl] | – | 5.00 to 6.00
19 | CCC(=O)N1CCC2(CCc3cc(-c4ccncc4)ccc3O2)CC1 [Example 226, 1-[6-(4-Pyridyl)spiro[chromane-2,4′-piperidine]-1′-yl]propan-1-one, HCl] | 5.00 to 6.00 | –
20 | O=C(C1CC1)N1CCC2(CCc3cc(-c4ccncc4)ccc3O2)CC1 [Example 227, Cyclopropyl-[6-(4-pyridyl)spiro[chromane-2,4′-piperidine]-1′-yl]methanone, HCl] | 5.00 to 6.00 | –
21 | O=C([C@H]1CCCO1)N1CCC2(CCc3cc(-c4ccncc4)ccc3O2)CC1 [Example 228, [6-(4-Pyridyl)spiro[chromane-2,4′-piperidine]-1′-yl]-[(2R)-tetrahydrofuran-2-yl]methanone, HCl] | 6.00 to 7.00 | –

Row | Structure (SMILES) | pIC50 [1] | pIC50
22 | O=C([C@H]1CCCO1)N1CCC2(CC1)OCc1cc(-c3cccnc3)ccc1O2 [Example 229, [6-(3-Pyridyl)spiro[4H-1,3-benzodioxine-2,4′-piperidine]-1′-yl]-[(2R)-tetrahydrofuran-2-yl]methanone] | – | 6.00 to 7.00
23 | O=C(C1CC1)N1CCC2(CC1)OCc1cc(-c3ccncc3)ccc1O2 [Example 230, Cyclopropyl-[6-(4-pyridyl)spiro[4H-1,3-benzodioxine-2,4′-piperidine]-1′-yl]-methanone, HCl] | – | 5.00 to 6.00
24 | O=C([C@H]1CCCO1)N1CCC2(CC1)OCc1cc(-c3ccncc3)ccc1O2 [Example 231, [6-(4-Pyridyl)spiro[4H-1,3-benzodioxine-2,4′-piperidine]-1′-yl]-[(2R)-tetrahydrofuran-2-yl]methanone, HCl] | – | 6.00 to 7.00
25 | CCC(=O)N1CCC2(CC1)OCc1cc(-c3ccncc3)ccc1O2 [Example 232, 1-[6-(4-Pyridyl)spiro[4H-1,3-benzodioxine-2,4′-piperidine]-1′-yl]propan-1-one, HCl] | – | 5.00 to 6.00
26 | Cc1nccc2cc(-c3cc4c(cc3F)OC3(CC4)CCN(C(N)=O)CC3)ccc12 [Example 234, 7-Fluoro-6-(1-methyl-6-isoquinolyl)spiro[chromane-2,4′-piperidine]-1′-carboxamide] | 5.00 to 6.00 | –
27 | NC(=O)N1CCC2(CCc3cc(-c4cc5ccccc5o4)ccc3O2)CC1 [Example 235, 6-(Benzofuran-2-yl)spiro[chromane-2,4′-piperidine]-1′-carboxamide] | 5.00 to 6.00 | –
28 | NC(=O)N1CCC2(CCc3cc(-c4cc5ccccc5[nH]4)ccc3O2)CC1 [Example 236, 6-(1H-Indol-2-yl)spiro[chromane-2,4′-piperidine]-1′-carboxamide] | 5.00 to 6.00 | –
29 | Cc1c(-c2cc(F)c3c(c2)CCC2(CCN(C(N)=O)CC2)O3)ccc2cccnc12 [Example 237, 8-Fluoro-6-(8-methyl-7-quinolyl)spiro[chromane-2,4′-piperidine]-1′-carboxamide] | 7.00 to 9.00 | –
30 | CONC(=O)N1CCC2(CCc3cc(-c4ccc5cccnc5c4C)cc(F)c3O2)CC1 [Example 238, 8-Fluoro-N-methoxy-6-(8-methyl-7-quinolyl)spiro[chromane-2,4′-piperidine]-1′-carboxamide] | 7.00 to 9.00 | –
31 | Cc1nccc2cc(-c3ccc4c(c3F)CCC3(CCN(C(N)=O)CC3)O4)ccc12 [Example 239, 5-Fluoro-6-(1-methyl-6-isoquinolyl)spiro[chromane-2,4′-piperidine]-1′carboxamide] | 5.00 to 6.00 | –
32 | Cc1c(-c2ccc3cccnc3c2C)ccc2c1CCC1(CCN(C(N)=O)CC1)O2 [Example 240, 5-Methyl-6-(8-methyl-7-quinolyl)spiro[chromane-2,4′-piperidine]-1′-carboxamide] | 5.00 to 6.00 | –
33 | Cc1c(-c2ccc3c(C)nccc3c2)ccc2c1CCC1(CCN(C(N)=O)CC1)O2 [Example 241, 5-methyl-6-(1-methyl-6-isoquinolyl)spiro[chromane-2,4′-piperidine]-1′-carboxamide] | 5.00 to 6.00 | –
34 | CONC(=O)N1CCC2(CCc3cc(-c4ccc5c(C)nccc5c4)cc(F)c3O2)CC1 [Example 242] | 7.00 to 9.00 | –
35 | Cc1c(-c2ccc3c(c2F)CCC2(CCN(C(N)=O)CC2)O3)ccc2cccnc12 [Example 243, 5-Fluoro-6-(8-methyl-7-quinolyl)spiro[chromane-2,4′-piperidine]-1′-carboxamide] | 6.00 to 7.00 | –
36 | Cc1cc2c(cc1-c1ccc3cccnc3c1C)CCC1(CCN(C(N)=O)CC1)O2 [Example 244, 7-Methyl-6-(8-methyl-7-quinolyl)spiro[chromane-2,4′-piperidine]-1′-carboxamide] | 5.00 to 6.00 | –
37 | CONC(=O)N1CCC2(CCc3cc(-c4ccc5cccnc5c4C)c(C)cc3O2)CC1 [Example 245, N-methoxy-7-methyl-6-(8-methyl-7-quinolyl)spiro[chromane-2,4′-piperidine]-1′-carboxamide] | 6.00 to 7.00 | –
38 | CONC(=O)N1CCC2(CCc3cc(-c4ccc5c(C)nccc5c4)c(C)cc3O2)CC1 [Example 246, N-Methoxy-7-methyl-6-(1-methyl-6-isoquinolyl)spiro[chromane-2,4′-piperidine]-1′-carboxamide] | 6.00 to 7.00 | –
39 | COc1cc(-c2ccc3cccnc3c2C)cc2c1OC1(CCN(C(N)=O)CC1)OC2 [Example 247, 8-Methoxy-6-(8-methyl-7-quinolyl)spiro[4H-1,3-benzodioxine-2,4′-piperidine]-1′-carboxamide] | – | 5.00 to 6.00
40 | CONC(=O)N1CCC2(CC1)OCc1cc(-c3ccc4c(C)nccc4c3)cc(OC)c1O2 [Example 248] | – | 5.00 to 6.00
41 | Cc1c(-c2cc(Cl)c3c(c2)CCC2(CCN(C(N)=O)CC2)O3)ccc2cccnc12 [Example 249, 8-chloro-6-(8-methyl-7-quinolyl)spiro[chromane-2,4′-piperidine]-1′-carboxamide] | 5.00 to 6.00 | –
42 | CONC(=O)N1CCC2(CCc3cc(-c4ccc5cccnc5c4C)cc(Cl)c3O2)CC1 [Example 250, 8-Chloro-N-methoxy-6-(8-methyl-7-quinolyl)spiro[chromane-2,4′-piperidine]-1′-carboxamide] | 6.00 to 7.00 | –
